Active and inactive are the calls of the source.
Experiments:
[1] = Fraction unbound in rat trigeminal ganglia neuron tissue; type: ADME, tissue-based, Trigeminal ganglion
[2] = Toxicity in CD1 mouse model of formalin-induced nociception assessed as prostration or sedation at 30 mg/kg, po; type: organism-based; conditions: in vivo
[3] = Toxicity in CD1 mouse model of formalin-induced nociception assessed as hypothermia at 30 mg/kg, po; type: organism-based; conditions: in vivo
Mus musculus [4] = test: Analgesic activity in CD1 mouse model of formalin-induced nociception assessed as reduction in formalin-evoked paw flinching/licking response during first phase at 30 mg/kg, po pretreated for 30 mins followed by formalin treatment and measured during first 5 mins post formalin injection; type: functional, organism-based
[5] = Drug uptake in DRG neurons of CD1 mouse model of formalin-induced nociception at 30 mg/kg, po; type: ADME, organism-based, DRG neuron; conditions: in vivo, read-out: Drug uptake
Mus musculus [6] = test: Analgesic activity in CD1 mouse model of formalin-induced nociception assessed as reduction in formalin-evoked paw flinching/licking response during second phase at 3 to 10 mg/kg, ip pretreated for 30 mins followed by formalin treatment and measured during 15 to 45 mins post formalin injection; type: functional, organism-based
[7] = Unbound plasma concentration in CD1 mouse model of chronic constriction injury-induced cold allodynia at 3 mg/kg, ip dosed at 5 weeks post surgery and measured 60 mins post dose; type: ADME, organism-based; conditions: in vivo, 1 h
Mus musculus [8] = test: Analgesic activity in CD1 mouse model of formalin-induced nociception assessed as reduction in formalin-evoked paw flinching/licking response during first phase at 30 mg/kg, ip pretreated for 30 mins followed by formalin treatment and measured during first 5 mins post formalin injection; type: functional, organism-based
[9] = biological target: Sodium channel protein type 4 subunit alpha (Homo sapiens, UniProt P35499); test: Inhibition of human Nav1.4 expressed in HEK293 cells after 600 secs at -60 mV holding potential by ion works barracuda population patch clamp method; type: cell-based
Chain of Sodium channel protein type 4 subunit alpha (P35499 whole entry): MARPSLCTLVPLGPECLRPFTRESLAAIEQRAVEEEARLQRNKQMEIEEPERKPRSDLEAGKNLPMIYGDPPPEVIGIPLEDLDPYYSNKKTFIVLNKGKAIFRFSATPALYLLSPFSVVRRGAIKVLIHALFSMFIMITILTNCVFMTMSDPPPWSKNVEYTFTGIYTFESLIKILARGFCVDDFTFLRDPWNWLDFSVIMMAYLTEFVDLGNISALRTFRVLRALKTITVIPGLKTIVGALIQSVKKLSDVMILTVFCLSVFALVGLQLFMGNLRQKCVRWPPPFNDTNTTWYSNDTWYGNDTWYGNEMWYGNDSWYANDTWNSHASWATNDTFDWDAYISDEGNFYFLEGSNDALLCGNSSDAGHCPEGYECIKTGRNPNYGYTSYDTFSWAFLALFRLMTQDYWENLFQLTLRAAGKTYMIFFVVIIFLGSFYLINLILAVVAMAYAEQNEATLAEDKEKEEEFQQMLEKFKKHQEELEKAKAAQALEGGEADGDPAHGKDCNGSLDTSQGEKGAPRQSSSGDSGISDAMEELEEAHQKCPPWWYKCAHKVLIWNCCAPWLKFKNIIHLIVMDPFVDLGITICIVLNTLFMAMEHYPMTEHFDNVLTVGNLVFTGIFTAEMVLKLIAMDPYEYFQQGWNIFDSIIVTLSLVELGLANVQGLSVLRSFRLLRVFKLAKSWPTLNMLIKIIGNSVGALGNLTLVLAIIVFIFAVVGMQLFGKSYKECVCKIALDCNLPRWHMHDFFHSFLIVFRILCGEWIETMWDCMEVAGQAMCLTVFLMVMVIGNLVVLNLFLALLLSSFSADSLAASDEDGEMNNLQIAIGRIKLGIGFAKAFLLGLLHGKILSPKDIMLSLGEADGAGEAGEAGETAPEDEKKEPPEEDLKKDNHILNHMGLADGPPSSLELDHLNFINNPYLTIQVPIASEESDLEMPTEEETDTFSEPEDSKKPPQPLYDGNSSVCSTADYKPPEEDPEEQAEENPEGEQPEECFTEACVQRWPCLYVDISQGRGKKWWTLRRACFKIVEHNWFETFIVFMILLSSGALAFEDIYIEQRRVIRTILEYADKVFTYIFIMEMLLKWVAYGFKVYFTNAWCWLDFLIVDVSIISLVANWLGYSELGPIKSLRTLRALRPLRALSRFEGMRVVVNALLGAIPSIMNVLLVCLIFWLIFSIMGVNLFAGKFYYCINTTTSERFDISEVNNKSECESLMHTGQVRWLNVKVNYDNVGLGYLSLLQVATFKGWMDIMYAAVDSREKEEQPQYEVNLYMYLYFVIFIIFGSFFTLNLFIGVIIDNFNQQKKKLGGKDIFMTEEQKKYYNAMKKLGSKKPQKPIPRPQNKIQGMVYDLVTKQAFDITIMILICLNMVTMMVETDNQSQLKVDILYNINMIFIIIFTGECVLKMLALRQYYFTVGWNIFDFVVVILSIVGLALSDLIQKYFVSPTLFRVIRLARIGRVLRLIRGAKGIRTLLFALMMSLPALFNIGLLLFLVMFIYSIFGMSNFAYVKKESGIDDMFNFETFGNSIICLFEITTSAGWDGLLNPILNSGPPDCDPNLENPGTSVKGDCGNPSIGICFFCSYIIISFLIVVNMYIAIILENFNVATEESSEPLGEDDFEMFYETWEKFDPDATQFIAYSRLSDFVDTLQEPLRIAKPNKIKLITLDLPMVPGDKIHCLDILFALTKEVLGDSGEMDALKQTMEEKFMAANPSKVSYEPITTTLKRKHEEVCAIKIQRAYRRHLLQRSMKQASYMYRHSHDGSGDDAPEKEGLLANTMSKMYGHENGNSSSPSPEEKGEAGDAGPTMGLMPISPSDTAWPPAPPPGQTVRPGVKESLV

[10] = Plasma concentration in CD1 mouse model of chronic constriction injury-induced cold allodynia at 3 mg/kg, ip dosed at 5 weeks post surgery and measured 60 mins post dose; type: ADME, organism-based
[11] = Unbound drug level in DRG neurons of CD1 mouse model of formalin-induced nociception at 30 mg/kg, ip; type: ADME, organism-based, DRG neuron; conditions: in vivo
[12] = Plasma concentration in CD1 mouse model of chronic constriction injury-induced cold allodynia at 30 mg/kg, ip dosed at 5 weeks post surgery and measured 60 mins post dose; type: ADME, organism-based
Mus musculus [13] = test: Analgesic activity in CD1 mouse model of formalin-induced nociception assessed as reduction in formalin-evoked paw flinching/licking response during first phase at 3 to 10 mg/kg, ip pretreated for 30 mins followed by formalin treatment and measured during first 5 mins post formalin injection; type: functional, organism-based
[14] = biological target: Sodium channel protein type 3 subunit alpha (Homo sapiens, UniProt Q9NY46); test: Inhibition of human Nav1.3 expressed in HEK293 cells after 600 secs at -60 mV holding potential by ion works barracuda population patch clamp method; type: cell-based
Chain of Sodium channel protein type 3 subunit alpha (Q9NY46 whole entry): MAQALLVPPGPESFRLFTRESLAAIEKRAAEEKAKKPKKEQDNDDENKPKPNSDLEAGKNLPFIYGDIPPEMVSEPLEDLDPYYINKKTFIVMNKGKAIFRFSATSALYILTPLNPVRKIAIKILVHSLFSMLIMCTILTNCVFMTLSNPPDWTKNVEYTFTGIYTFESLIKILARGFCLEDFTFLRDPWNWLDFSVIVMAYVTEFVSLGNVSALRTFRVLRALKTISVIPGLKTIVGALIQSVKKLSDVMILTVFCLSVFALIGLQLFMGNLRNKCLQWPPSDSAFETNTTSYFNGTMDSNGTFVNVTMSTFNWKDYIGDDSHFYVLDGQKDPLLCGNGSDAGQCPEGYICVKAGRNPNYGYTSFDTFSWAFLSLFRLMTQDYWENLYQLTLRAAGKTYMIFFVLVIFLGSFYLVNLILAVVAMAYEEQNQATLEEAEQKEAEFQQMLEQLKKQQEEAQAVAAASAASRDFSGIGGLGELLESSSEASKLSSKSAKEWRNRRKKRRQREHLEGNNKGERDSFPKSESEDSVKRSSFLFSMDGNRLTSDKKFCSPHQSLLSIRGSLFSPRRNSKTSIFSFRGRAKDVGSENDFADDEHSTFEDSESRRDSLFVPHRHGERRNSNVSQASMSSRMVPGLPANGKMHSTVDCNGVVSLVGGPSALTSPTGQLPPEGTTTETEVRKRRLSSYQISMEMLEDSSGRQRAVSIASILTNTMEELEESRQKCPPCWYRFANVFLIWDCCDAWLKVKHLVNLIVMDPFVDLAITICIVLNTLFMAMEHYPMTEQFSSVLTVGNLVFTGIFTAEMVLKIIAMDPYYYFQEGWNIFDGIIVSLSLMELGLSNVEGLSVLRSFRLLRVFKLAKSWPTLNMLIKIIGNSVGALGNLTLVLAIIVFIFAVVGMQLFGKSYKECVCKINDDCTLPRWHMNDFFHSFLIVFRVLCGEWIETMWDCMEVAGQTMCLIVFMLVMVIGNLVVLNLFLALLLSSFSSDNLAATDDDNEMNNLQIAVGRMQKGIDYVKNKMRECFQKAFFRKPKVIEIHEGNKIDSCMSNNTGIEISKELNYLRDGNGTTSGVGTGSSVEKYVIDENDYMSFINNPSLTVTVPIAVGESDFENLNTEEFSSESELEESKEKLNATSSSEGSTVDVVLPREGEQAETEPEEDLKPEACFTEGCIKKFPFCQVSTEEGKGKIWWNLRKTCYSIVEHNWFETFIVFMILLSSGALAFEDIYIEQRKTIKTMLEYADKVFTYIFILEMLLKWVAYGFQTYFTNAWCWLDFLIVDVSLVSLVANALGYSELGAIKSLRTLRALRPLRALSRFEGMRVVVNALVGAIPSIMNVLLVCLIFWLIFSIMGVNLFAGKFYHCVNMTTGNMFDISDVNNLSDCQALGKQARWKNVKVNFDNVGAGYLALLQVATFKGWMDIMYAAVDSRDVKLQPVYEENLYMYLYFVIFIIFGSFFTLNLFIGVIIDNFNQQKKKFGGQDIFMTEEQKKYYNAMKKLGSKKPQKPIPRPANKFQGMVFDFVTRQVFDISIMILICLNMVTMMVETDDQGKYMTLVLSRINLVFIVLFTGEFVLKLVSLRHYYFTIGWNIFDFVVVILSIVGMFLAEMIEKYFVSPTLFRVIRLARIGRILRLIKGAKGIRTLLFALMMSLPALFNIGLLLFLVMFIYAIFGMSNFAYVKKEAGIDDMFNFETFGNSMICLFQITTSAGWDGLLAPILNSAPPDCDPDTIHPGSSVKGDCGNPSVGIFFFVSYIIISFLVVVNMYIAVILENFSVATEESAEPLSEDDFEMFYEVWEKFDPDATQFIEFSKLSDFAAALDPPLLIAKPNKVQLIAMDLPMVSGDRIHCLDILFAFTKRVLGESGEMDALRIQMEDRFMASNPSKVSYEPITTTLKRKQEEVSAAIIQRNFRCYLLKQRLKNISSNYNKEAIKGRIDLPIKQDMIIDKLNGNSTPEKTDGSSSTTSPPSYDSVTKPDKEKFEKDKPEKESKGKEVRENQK

Mus musculus [15] = organism: Mus musculus; test: Reduction in mechanoreceptor-mediated afferent transmission in mouse sural nerve assessed as decrease in mechanically elicited afferent firing at 10 to 30 uM measured at 20 mins post dose at 1.6 to 980 mN threshold pressure; type: functional, tissue-based
[16] = Unbound plasma concentration in CD1 mouse model of chronic constriction injury-induced cold allodynia at 10 mg/kg, ip dosed at 5 weeks post surgery and measured 60 mins post dose; type: ADME, organism-based; conditions: in vivo, 1 h
Mus musculus [17] = test: Analgesic activity in CD1 mouse model of formalin-induced nociception assessed as reduction in formalin-evoked paw flinching/licking response during second phase at 30 mg/kg, ip pretreated for 30 mins followed by formalin treatment and measured during 15 to 45 mins post formalin injection; type: functional, organism-based
[18] = Unbound plasma concentration in CD1 mouse model of formalin-induced nociception at 30 mg/kg, ip; type: ADME, organism-based; conditions: in vivo

Structure (SMILES)	fraction unbound [1]	Activity [2]	Activity [3]	Activity (Mus musculus [4])	concentration [5] [nM]	Activity (Mus musculus [6])	Cp(f) [7] [nM]	Activity (Mus musculus [8])	IC50 [9] [µM]	concentration at 1 h [10] [µM]	Drug uptake(free) [11] [nM]	concentration at 1 h [12] [µM]	Activity (Mus musculus [13])	IC50 [14] [µM]	Activity (Mus musculus [15])	Cp(f) [16] [nM]	Activity (Mus musculus [17])	Cp(f) [18] [nM]
CC(C)COc1ccc(-c2cn(C)c3cc(C(=O)NS(C)(=O)=O)c(F)cc23)cn1	0.045	Non-Toxic	Non-Toxic	inactive	990	–	–	–	–	–	–	–	–	–	–	–	–	–
CC(C)COc1ncc(-c2cn(C)c3cc(C(=O)NS(C)(=O)=O)ccc23)cc1Cl	–	–	–	–	–	inactive	6.6	inactive	4.8	3.3	95	68	inactive	> 30	Active	54	Active	118

Reference: ChEMBL document CHEMBL4371076 (J Med Chem, 2019)
